# Data reported in EP2098236A1, “Cytostatic compositions” (Medizinische Hochschule Hannover, priority 2008, dated 2009).
# Columns and labels:
# [1] = system: TPMT wildtype lymphoblastoid cells; assay: cells; conditions: Homo sapiens, Lymphoblastoid cell, 72 h, read-out: Mean percentage viable cells after 72 h
# [2] = in vivo; cited from earlier work
# [3] = system: patients with childhood ALL; conditions: cited from earlier work; for central nervous system (CNS) relapse: COALL-92, maintenance, p = 0.053
# childhood ALL [4] = conditions: CCG-1952, cited from earlier work; for event-free survival: at 5 years, p = 0.02
# childhood ALL [5] = conditions: UK MRC ALL 97, cited from earlier work
SMILES,viability at 0.0625 µM [1] [%],viability at 0.125 µM [1] [%],viability at 0.25 µM [1] [%],half lives [2],central nervous system (CNS) relapse [3] [%],Treatment interruptions ([3]; COALL-92),"Treatment interruptions, higher rate compared to the 6-mercaptopurine arm ([3]; COALL-92) [fold]","incidence of thrombocytopenia (< 100 x 10^9/l) without evidence of leukocytopenia (<1 x 10^9/l), higher compared to the 6-mercaptopurine arm ([3]; COALL-92) [fold]",event-free survival (childhood ALL [4]) [%],patients with hepatic VOD-like symptoms (childhood ALL [4]),patients who developed non-fatal hepatic toxicity with features of veno-occlusive disease (VOD) (childhood ALL [5]),"isolated disease recurrence in the CNS, odds ratio (childhood ALL [5]; vs 6-mercaptopurine, 95% confidence interval 0.30 - 0.92)","risk of death in remission, odds ratio (childhood ALL [5]; vs 6-mercaptopurine, 95% confidence interval 1.20 - 4.14, mainly due to infections)",viability at 0.5 µM [1] [%],viability at 1 µM [1] [%]
"Nc1nc2nc[nH]c2c(=S)[nH]1 [TG, 6-thioguanine]",81.2,75.9,71.3,~90 min,3.4,4.7 % of maintenance treatment weeks,1.7,7.5,85.1,approximately 20%,11%,0.53,2.22,–,–
"Sc1ncnc2nc[nH]c12 [MP, 6-mercaptopurine]",–,89.3,84.7,approximately 21 minutes,0.8,2.8 % of maintenance treatment weeks,–,–,77.1,–,less than 2%,–,–,79.8,73.1
